For orientation: Papp A→B means the apparent permeability from the apical to the basolateral side of a cell layer. A low value points to poor permeation. By Papp B→A is commonly meant the apparent permeability from the basolateral to the apical side of a cell layer.

Series [1] can be described thus: Membrane permeability and transport properties (Caco-2). It is filed as in vitro ADME. To be noted: human, pH 7.4, Caco-2, 10 μM. From the text:
• 1. Caco-2 cells (ATCC) • 2. HEPES (Solarbio 804D049), penicillin/streptomycin (Solarbio 20200109), and PBS (Solarbio 20200620) • 3. Fetal Bovine Serum (FBS) (Sigma WXBD0055V), lucifer yellow (Sigma MKCJ3738), and NaHCO3 (Sigma SLBZ4647) • 4. Hank's balanced salt solution (HBSS) (Gibco 2085528), non-essential amino acid (NEAA) (Gibco 2211548), and Trypsin/EDTA (Gibco 2120732) • 5. High glucose DMEM (Corning 20319014) • 6. HTS Transwell-96 Well Permeable (Corning, 3391) • 7. Resistance detector (Millipore, Millicell® ERS-2) • 8. Cellometer® Vision (Nexcelom Bioscience) • 9. Infinite 200 PRO microplate reader (Tecan, Infinite M200PRO) • 10. Positive control compound metoprolol (Sinopharm 100084-201403), erythromycin (MCE 84550), and cimetidine (Sinopharm 100158-201406) • 11. ABI QTrap 5500 liquid chromatography-mass spectrometry system
• 1. […] Evaluation of integrity of monolayer cell membrane • 1) The cells fused and differentiated after 14 days of culture and were ready for a transport experiment. • 2) The resistance of the monolayer membrane was measured using a resistance detector. The resistance of each well was recorded. • 3) After measurement, the Transwell culture plate was re-incubated. • 4) The TEER value was calculated: […]
Background: Caco-2 cells form a polarised layer with tight junctions and transporters.

For series [2], the system named is CHS mouse model. In words: Efficacy test in CHS mouse model (FITC sensitization, right ear thickness). It is filed as in vivo, C57BL/6N mice. To be noted: 3 μg/mouse. The method, then: Construction of CHS mouse model: 6- to 8-week-old female C57BL/6N mice (Beijing Vital River Laboratory Animal Technology Co., Ltd.) were selected, and all mice were shaved off abdominal hair using a small animal hair clipper. 400 μL of the sensitizer was pipetted with a micropipette and applied evenly to the abdomen of the mice for epidermal sensitization. After application, the mice were held for 3-5 s and the solvent was allowed to evaporate from the skin as clean as possible. The specific preparation method for the sensitizer was: 0.5 g of FITC (fluorescein isothiocyanate; sigma-Aldrich) powder was weighed and fully dissolved in a solvent of 50 mL of acetone (SinoPharm reagent) and 50 mL of DBP (dibutyl phthalate; sigma-Aldrich) in equal proportion to give the sensitizer with the FITC content of 0.5%. On the 6th day after sensitization, the thickness of the right ear of the mice was measured with a dial thickness gauge as a baseline value, then a freshly prepared sensitizer was pipetted with a micropipette and applied evenly inside and outside of the right ear of the mice respectively for epidermal stimulation, and 10 μL of the sensitizer was applied on each side. 24 h after stimulation, the thickness of the right ear of the mice was measured again with a dial thickness gauge to obtain the thickness change of the right ear of the mice, A thickness of right ear=(thickness of right ear 24 h after stimulation)−(baseline value of thickness of right ear).
Therapeutic regimen for CHS model mouse: mice were divided into a blank group, a negative control group, a positive control group, and an experimental group. […] The drug was administered by one-time intraperitoneal injection 1 h before the right ear epidermal stimulation.

In series [1] (apical to basal), `C[C@]12C=CC(=O)C=C1CC[C@@H]1[C@@H]2[C@@H](O)C[C@@]2(C)[C@H]1C[C@H]1O[C@@H](c3ccc(Cc4cc(N)c5c(c4)CCO5)cc3)O[C@]12C(=O)CO` [Compound 009, (6aR,6bS,7S,8aS,8bS,10R,11aR,12aS,12bS)-10-(4-((7-amino-2,3-dihydrobenzofuran-5-yl)methyl)phenyl)-7-hydroxy-8b-(2-hydroxyacetyl)-6a,8a-dimethyl-6a,6b,7,8,8a,8b,11a,12,12a,12b-decahydro-1H-naphtho[2′,1′:4,5]indeno[1,2-d][1,3]dioxolan-4(2H)-one] gave a Papp A→B at 2 h, 10 μM of 0.73 ×10⁻⁶ cm/s. In series [1] (basal to apical), this molecule returned a Papp B→A at 2 h, 10 μM of 3.86 ×10⁻⁶ cm/s. Further, in series [2] (one-time intraperitoneal injection 1 h before right ear stimulation, measured 24 h after stimulation), the “thickness of the right ear in CHS mice compared to the negative control group” value was “significant decrease”. Further, the “efficacy compared with positive reference compound a at the same dose” value in series [2] (one-time intraperitoneal injection, CHS mice, right ear thickness) is recorded as “superior in efficacy to the positive reference compound a”.
